A short description of data set [1]: Toxicity in female BALB/cA nude mouse assessed as appearance of inflammatory lesions in kidney at 25 mg/kg, iv administered once a week for 35 days by H and E staining based analysis. It counts as organism-based. The note with it: in vivo, 840 h, time 35 day.
Data set [2] in a line: Toxicity in female BALB/cA nude mouse assessed as fibrotic changes in lung at 25 mg/kg, iv administered once a week for 35 days by H and E staining based analysis. As to conditions: in vivo, 840 h, time 35 day. It counts as organism-based.
Data set [3] in a line: Toxicity in female BALB/cA nude mouse assessed as appearance of inflammatory lesions in heart at 25 mg/kg, iv administered once a week for 35 days by H and E staining based analysis. It counts as organism-based. The note with it: in vivo, 840 h, time 35 day.
Data set [4] in a line: Toxicity in female BALB/cA nude mouse assessed as effect on body weight loss at 25 mg/kg, iv administered twice per week measured after 107 days. Type of data set: organism-based. The note with it: in vivo, 2568 h, time 107 day.
Data set [5] in a line: Toxicity in female BALB/cA nude mouse assessed as fibrotic changes in spleen at 25 mg/kg, iv administered once a week for 35 days by H and E staining based analysis. The note with it: in vivo, 840 h, time 35 day. Type of data set: organism-based.
Data set [6] has as its system HCT-116. Kind of data set: Antitumor activity against human HCT-116 cells xenografted in female BALB/cA nude mouse model assessed as increase in tumor cell apoptosis by measuring increase in red fluorescence at 25 mg/kg, iv by TUNEL analysis. It counts as functional, organism-based.
A short description of data set [7]: Toxicity in female BALB/cA nude mouse assessed as appearance of inflammatory lesions in spleen at 25 mg/kg, iv administered once a week for 35 days by H and E staining based analysis. Type of data set: organism-based. The note with it: in vivo, 840 h, time 35 day.
The nature of data set [8]: Toxicity in female BALB/cA nude mouse assessed as fibrotic changes in tumor at 25 mg/kg, iv administered once a week for 35 days by H and E staining based analysis. It counts as organism-based. As to conditions: in vivo, 840 h, time 35 day.
Data set [9] is described as follows: Toxicity in female BALB/cA nude mouse assessed as fibrotic changes in kidney at 25 mg/kg, iv administered once a week for 35 days by H and E staining based analysis. As to conditions: in vivo, 840 h, time 35 day. It counts as organism-based.
Data set [10] is described as follows: Toxicity in female BALB/cA nude mouse assessed as inflammatory response in liver at 25 mg/kg, iv measured after 24 hrs by H and E staining based analysis. As to conditions: in vivo. It counts as organism-based.
Data set [11] concerns HCT-116. Kind of data set: Antitumor activity against human HCT-116 cells xenografted in female BALB/cA nude mouse model assessed as tumor shrinkage at 25 mg/kg, iv administered twice per week measured after 65 days relative to control. Type of data set: functional. As to conditions: time 65 day.
Data set [12] can be described thus: Toxicity in female BALB/cA nude mouse assessed as appearance of inflammatory lesions in lung at 25 mg/kg, iv administered once a week for 35 days by H and E staining based analysis. Type of data set: organism-based. As to conditions: in vivo, 840 h, time 35 day.
Data set [13] can be described thus: Half life in female BALB/c mouse at 25 mg/kg measured up to 120 hrs by HPLC analysis. It counts as ADME, organism-based. The note with it: in vivo.
Data set [14] can be described thus: Toxicity in female BALB/cA nude mouse assessed as appearance of inflammatory lesions in tumor at 25 mg/kg, iv administered once a week for 35 days by H and E staining based analysis. As to conditions: in vivo, 840 h, time 35 day. It counts as organism-based.
Data set [15] is described as follows: Toxicity in female BALB/cA nude mouse assessed as fibrotic changes in liver at 25 mg/kg, iv administered once a week for 35 days by H and E staining based analysis. As to conditions: in vivo, 840 h, time 35 day. Type of data set: organism-based.
Data set [16] is described as follows: Toxicity in female BALB/cA nude mouse assessed as appearance of inflammatory lesions in kidney at 38 mg/kg, iv administered once a week for 35 days by H and E staining based analysis. Type of data set: organism-based. The note with it: in vivo, 840 h, time 35 day.
The nature of data set [17]: Toxicity in female BALB/cA nude mouse assessed as fibrotic changes in kidney at 38 mg/kg, iv administered once a week for 35 days by H and E staining based analysis. Type of data set: organism-based. The note with it: in vivo, 840 h, time 35 day.
Data set [18] in a line: Toxicity in female BALB/cA nude mouse assessed as fibrotic changes in tumor at 38 mg/kg, iv administered once a week for 35 days by H and E staining based analysis. Type of data set: organism-based. As to conditions: in vivo, 840 h, time 35 day.
Data set [19] relates to HCT-116. Put plainly: Antitumor activity against human HCT-116 cells xenografted in female BALB/cA nude mouse model assessed as increase in tumor cell apoptosis by measuring increase in red fluorescence at 38 mg/kg, iv by TUNEL analysis. Type of data set: functional, organism-based.
The nature of data set [20]: Toxicity in female BALB/cA nude mouse assessed as appearance of inflammatory lesions in heart at 38 mg/kg, iv administered once a week for 35 days by H and E staining based analysis. Type of data set: organism-based. The note with it: in vivo, 840 h, time 35 day.
Data set [21] is described as follows: AUC (0 to t) in female BALB/c mouse at 38 mg/kg measured up to 168 hrs by HPLC analysis. Type of data set: ADME, organism-based. As to conditions: in vivo.
The nature of data set [22]: Toxicity in female BALB/cA nude mouse assessed as appearance of inflammatory lesions in liver at 38 mg/kg, iv administered once a week for 35 days by H and E staining based analysis. It counts as organism-based. The note with it: in vivo, 840 h, time 35 day.
The subject of data set [23] is BXPC-3. Put plainly: Antitumor activity against human BXPC-3 cells xenografted in female BALB/cA nude mouse model assessed as suppression of tumor growth by measuring relative tumor proliferation rate at 38 mg/kg, iv measured after 18 days. Type of data set: functional, organism-based. The note with it: time 18.0 day.
The nature of data set [24]: Prodrug release in female BALB/c nude mouse tumor assessed as (S)-4,11-diethyl-4,9-dihydroxy-1,12-dihydro-14H-pyrano[3',4':6,7]indolizino[1,2-b]quinoline-3,14(4H)-dione accumulation at 38 mg/kg measured after 6 hrs by HPLC analysis. It counts as ADME, organism-based, Neoplasm. The note with it: in vivo.
Data set [25] deals with HCT-116. Kind of data set: Antitumor activity against human HCT-116 cells xenografted in female BALB/cA nude mouse model assessed as relative tumor proliferation rate at 38 mg/kg, iv administered twice per week measured after 107 days. It counts as functional, organism-based. As to conditions: time 107.0 day.
The target of another data set is Albumin (Homo sapiens, UniProt P02768). Put plainly: Binding affinity to human serum albumin assessed as binding rate measured after 24 mins by HPLC analysis relative to control. It counts as ADME. As to conditions: isolated protein, 0.4 h.
Sequence of Albumin (P02768 whole entry): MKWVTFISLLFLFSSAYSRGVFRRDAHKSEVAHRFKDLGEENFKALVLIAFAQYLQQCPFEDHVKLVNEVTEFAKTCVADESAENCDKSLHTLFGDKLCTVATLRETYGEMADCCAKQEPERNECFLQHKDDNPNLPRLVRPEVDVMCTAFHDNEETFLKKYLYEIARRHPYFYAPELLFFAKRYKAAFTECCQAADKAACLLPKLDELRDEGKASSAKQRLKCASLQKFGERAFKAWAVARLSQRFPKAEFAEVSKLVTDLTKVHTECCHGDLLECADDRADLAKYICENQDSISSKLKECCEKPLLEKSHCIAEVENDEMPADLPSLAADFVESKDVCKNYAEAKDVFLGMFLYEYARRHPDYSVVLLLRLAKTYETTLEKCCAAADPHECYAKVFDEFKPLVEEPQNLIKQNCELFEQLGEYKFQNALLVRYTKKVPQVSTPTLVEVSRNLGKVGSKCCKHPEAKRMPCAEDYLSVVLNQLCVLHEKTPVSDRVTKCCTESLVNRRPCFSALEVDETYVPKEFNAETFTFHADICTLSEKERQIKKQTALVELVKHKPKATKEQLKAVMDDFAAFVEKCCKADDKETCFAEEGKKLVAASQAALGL
The subject of data set [26] is BXPC-3. Put plainly: Antitumor activity against human BXPC-3 cells xenografted in female BALB/cA nude mouse model assessed as suppression of tumor growth by measuring relative tumor proliferation rate at 38 mg/kg, iv measured after 17 days relative to control. Type of data set: functional. As to conditions: time 17 day.
A short description of data set [27]: Toxicity in female BALB/cA nude mouse assessed as appearance of inflammatory lesions in lung at 38 mg/kg, iv administered once a week for 35 days by H and E staining based analysis. Type of data set: organism-based. As to conditions: in vivo, 840 h, time 35 day.
Data set [28] is described as follows: Toxicity in female BALB/cA nude mouse assessed as appearance of inflammatory lesions in tumor at 38 mg/kg, iv administered once a week for 35 days by H and E staining based analysis. Type of data set: organism-based. As to conditions: in vivo, 840 h, time 35 day.
Data set [29] can be described thus: Toxicity in female BALB/cA nude mouse assessed as appearance of inflammatory lesions in spleen at 38 mg/kg, iv administered once a week for 35 days by H and E staining based analysis. Type of data set: organism-based. As to conditions: in vivo, 840 h, time 35 day.
A short description of data set [30]: Toxicity in female BALB/cA nude mouse assessed as appearance of fibrosis in heart at 38 mg/kg, iv measured after 24 hrs by H and E staining based analysis. The note with it: in vivo. It counts as organism-based.
The nature of data set [31]: Toxicity in female BALB/cA nude mouse assessed as necrosis in tumor tissue at 38 mg/kg, iv measured after 24 hrs by H and E staining based analysis. It counts as organism-based. The note with it: in vivo.
The nature of data set [32]: Toxicity in female BALB/cA nude mouse assessed as damage in heart at 38 mg/kg, iv measured after 24 hrs by H and E staining based analysis. The note with it: in vivo. It counts as organism-based.
Data set [33] is described as follows: Toxicity in female BALB/cA nude mouse assessed as effect on body weight loss at 38 mg/kg, iv administered once a week for 35 days. It counts as organism-based. As to conditions: in vivo, 840 h, time 35 day.

Active and inactive are the calls of the source. The calls are words filed in the database; no cut-off is given here.

As to `CCc1c2c(nc3ccc(OCc4ccc(O[C@@H]5O[C@H](C(=O)O)[C@@H](O)[C@H](O)[C@H]5O)c(NC(=O)CCNC(=O)CCCCCN5C(=O)C=CC5=O)c4)cc13)-c1cc3c(c(=O)n1C2)COC(=O)[C@]3(O)CC`, the Activity entry in [1], in [2], in data set [3], in data set [4], in [5] and in data set [7] was “Non-toxic” each time. Moreover, the Activity result in data set [8] is on record as “Non-toxic”; in data set [9], “Non-toxic”; in data set [10] it was “Toxic”; in the data set on HCT-116 [11] it was 100%; in data set [12] it was “Non-toxic”; in data set [14], “Non-toxic”. Also, the Activity entry in data set [15] is recorded as “Non-toxic”. The outcome in the data set with HCT-116 [6] was Active. Moreover, in data set [13], the t1/2 came to 52.31 h.
For `CCc1c2c(nc3ccc(OCc4ccc(O[C@@H]5O[C@H](C(=O)O)[C@@H](O)[C@H](O)[C@H]5O)c(NC(=O)CCNC(=O)COCCOCCNC(=O)COCCOCCNC(=O)CC[C@H](NC(=O)CCCCCCCCCCCCCCCCC(=O)O)C(=O)O)c4)cc13)-c1cc3c(c(=O)n1C2)COC(=O)[C@]3(O)CC`, the Activity entry in data set [16] is listed as “Non-toxic”; in data set [17], “Non-toxic”; in data set [18] it was “Non-toxic”; in data set [20] it was “Non-toxic”; in data set [22], “Non-toxic”; on Albumin, 94%. For the same molecule, the Activity in the data set with BXPC-3 [26] is listed as 34.39%; in data set [27] it was “Non-toxic”; in data set [28], “Non-toxic”; in data set [29] it was “Non-toxic”; in data set [30], “Toxic”; in data set [31], “Toxic”. Further, the Activity entry in [32] is “Toxic”; in [33] it was “Non-toxic”. Also, the outcome in the data set with HCT-116 [19] was Active. Further, the AUC(0-t) at 168 h in data set [21] came to 837 µg·h/mL. For the same molecule, the outcome in the data set on BXPC-3 [23] and in the data set on HCT-116 [25] was inactive. Besides, the Drug metabolism in [24] is 0.376 % ID/g.

(Values after ChEMBL document CHEMBL6134851, “Comparative Study on Covalent and Noncovalent Endogenous Albumin-Binding β-Glucuronidase-Activated SN38 Prodrugs for Antitumor Efficacy” (J Med Chem, 2025).)
